Values quoted from earlier work in patent US20090196894A1, “Self Tanning Composition” (priority 2006, published 2009).

Conditions: over the entire pH range, among the investigated hydroxyflavones

Structure (SMILES): O=c1c(O)c(-c2ccc(O)c(O)c2)oc2cc(O)cc(O)c12 [quercetin, 3,3′,4′,5,7-pentahydrooxyflavone]
- antioxidative effect: highest activity
